Results taken from paper doi:10.1101/2024.12.20.629780v2 (bioRxiv, 2024).
Ends that are not written are not given here.

system: PMA-differentiated human monocytes (THP-1); assay: MTT cytotoxicity assay; type: cell-based; conditions: Ala-scan

| Compound | Cytotoxicity in PMA-differentiated THP-1 cells relative to Turingcin-46 |
| --- | --- |
| FRWALYKRALAATTIKIKRRK [W4A-Turingcin-46] | reduced cytotoxicity |
| FRWWAYKRALAATTIKIKRRK [L5A-Turingcin-46] | reduced cytotoxicity |
| FRWWLYKRALAATTIKIKRAK [R20A-Turingcin-46] | reduced cytotoxicity |
| FRWWLYKRALAATTIKIKRRA [K21A-Turingcin-46] | reduced cytotoxicity |

system: not listed separately; assay: Solubility in autoclaved deionized water; type: physicochemical; conditions: not given

| Compound | Solubility in autoclaved deionized water |
| --- | --- |
| ARWWLYKRALAATTIKIKRRK [F1A-Turingcin-46] | Soluble |
| FAWWLYKRALAATTIKIKRRK [R2A-Turingcin-46] | Soluble |
| FRAWLYKRALAATTIKIKRRK [W3A-Turingcin-46] | Soluble |
| FRWALYKRALAATTIKIKRRK [W4A-Turingcin-46] | Soluble |
| FRWWAYKRALAATTIKIKRRK [L5A-Turingcin-46] | Soluble |
| FRWWLAKRALAATTIKIKRRK [Y6A-Turingcin-46] | Soluble |
| FRWWLYARALAATTIKIKRRK [K7A-Turingcin-46] | Soluble |
| FRWWLYKAALAATTIKIKRRK [R8A-Turingcin-46] | Soluble |
| FRWWLYKRAAAATTIKIKRRK [L10A-Turingcin-46] | Soluble |
| FRWWLYKRALAAATIKIKRRK [T13A-Turingcin-46] | Soluble |
| FRWWLYKRALAATAIKIKRRK [T14A-Turingcin-46] | Soluble |
| FRWWLYKRALAATTAKIKRRK [I15A-Turingcin-46] | Soluble |
| FRWWLYKRALAATTIAIKRRK [K16A-Turingcin-46] | Soluble |
| FRWWLYKRALAATTIKAKRRK [I17A-Turingcin-46] | Soluble |
| FRWWLYKRALAATTIKIARRK [K18A-Turingcin-46] | Soluble |
| FRWWLYKRALAATTIKIKARK [R19A-Turingcin-46] | Soluble |
| FRWWLYKRALAATTIKIKRAK [R20A-Turingcin-46] | Soluble |
| FRWWLYKRALAATTIKIKRRA [K21A-Turingcin-46] | Soluble |
| FRWWLYKRALAATTIKIKRRK [Turingcin-46] | Soluble |
| ILARLSSILKLI [Turingcin-4] | Insoluble |
| KILIRKILTIIERKLLRSNLKS [Turingcin-12] | Soluble |
| KILWYRIILIRFQKVW [Turingcin-5] | Insoluble |
| KIWKIKILRINKKTSSIIA [Turingcin-14] | Soluble |
| KKIIIKFLIFNTKL [Turingcin-19] | Soluble |

| Compound | Solubility in autoclaved deionized water |
| --- | --- |
| KKRVYRQKIRLIKKAIFFKKR [Turingcin-18] | Soluble |
| KKVWYIKVKLALALIKNI [Turingcin-3] | Soluble |
| KLRSSKKIFQIAAKFNKLFRRK [Turingcin-26] | Soluble |
| KMWKLRIKLTI [Turingcin-13] | Soluble |
| KQIKQRSIRIKIFKKIL [Turingcin-24] | Soluble |
| KRIKILRKYKWNQQYKKKL [Turingcin-16] | Soluble |
| KRRAARIKQLRFIQQSLREERIIQKLIK [Turingcin-6] | Soluble |
| LIWRRKIFRIKLRI [Turingcin-17] | Soluble |
| QRRVLRFKLNTKIARLINLNI [Turingcin-27] | Soluble |
| RIINIILNRNLKKIILAAAIRNAIRW [Turingcin-22] | Soluble |
| RILRKVWTAWLREAALTIKVKR [Turingcin-9] | Soluble |
| RILRKWSNWWWNNWLIWK [Turingcin-28] | Soluble |
| RLIKAILNRVWKAWAIQKK [Turingcin-2] | Soluble |
| RLKSILLLIVTKINIRLKIA [Turingcin-7] | Soluble |
| RRLNSKINLYLRIIIALINK [Turingcin-20] | Soluble |
| RRWVHKILLIIIKILA [Turingcin-1] | Soluble |
| RVWKTLRIKVYFARRKQR [Turingcin-25] | Soluble |
| RWWYTSIIKKKLNKIIA [Turingcin-11] | Soluble |
| RYIRLLVILKLA [Turingcin-10] | Soluble |
| SRKYRQLAKYIWRNLANKNRLIIKA [Turingcin-15] | Soluble |
| VMRRFFRLLRKIKL [Turingcin-23] | Soluble |
| WAVKSSRIIYTLLRKLKTWFNIKAK [Turingcin-8] | Soluble |
| WYLIRVALIAFKKA [Turingcin-21] | Insoluble |

system: not listed separately; assay: Resistance to proteolytic degradation in human serum; type: in vitro ADME; conditions: 25% human serum in water

| Compound | remaining at 1 h, 7 mg mL-1 [%] |
| --- | --- |
| FRWWLYKRALAATTIKIKRRK [Turingcin-46] | ~50 |

system: S. aureus ATCC 12600; assay: Skin abscess infection mouse model; type: in vivo, CD-1 mice; conditions: general indicator of potential toxicity

| Compound | Body weight change, skin abscess model |
| --- | --- |
| FRWWLYKRALAATTIKIKRRK [Turingcin-46] | no significant changes in body weight |

system: S. aureus ATCC 12600; assay: Peritonitis/sepsis mouse model; type: in vivo, CD-1 mice; conditions: at the tested dose

| Compound | Body weight change, peritonitis/sepsis model |
| --- | --- |
| FRWWLYKRALAATTIKIKRRK [Turingcin-46] | no significant changes in body weight |

same assay, conditions: peritoneal lavage, log10 CFU, n = 9 per group

| Compound | Slope of intracellular versus extracellular bacterial loads (linear regression) |
| --- | --- |
| CNC(C)C1CCC(N)C(OC2C(N)CC(N)C(OC3OCC(C)(O)C(NC)C3O)C2O)O1 (stereo not shown) [gentamicin, reference compound] | 1.37 |
